Measurements as given in patent US4499106A, “Lipolytic composition and method of treating obesity” (Boehringer Ingelheim KG, priority 1983, dated 1985).
“Also recorded” adds a separate entry of the source.

Columns and labels:
bronchi (ACh spasm) = assay: Bronchospasmolysis, anesthetized guinea pig (inhibition of ACh spasm); format: in vivo; conditions: for bronchospasmolytic effects compared with Me 693: vs Me 693, in words
From the text: (§1) If the effects on the heart (heart rate), circulation (diastolic blood pressure, peripheral vasodilation) and bronchi, on the one hand, and the increase in the unesterified fatty acids in the blood after the administration of Me 693, on the other hand, are compared with the effects of isoprenaline and fenoterol, it is clear that the cardiovascular and bronchospasmolytic effects are much greater after administration of the comparison substances than with the Me 693, whereas the reverse is true of the lipolytic effects.
(§2) Metabolic and cardiovascular effects and bronchospasmolytic effects of Me
(§3) isoprenaline and fenoterol in animals of various types. The table gives
(§4) maximum percentage changes compared with control values.

[1] = test system: circulation (peripheral vasodilation); assay: Peripheral vasodilation, anesthetized dog (maximum percentage change vs control); format: in vivo
From the text: as §1, §2, §3, §4

heart (heart rate) = assay: Heart rate, anesthetized dog (maximum percentage change vs control); format: in vivo; conditions: for Heart Rate Δ%: maximum change; for cardiovascular effects compared with Me 693: vs Me 693, in words
From the text: as §1, §2, §3, §4

[2] = test system: circulation (diastolic blood pressure); assay: Diastolic blood pressure, anesthetized dog (maximum percentage change vs control); format: in vivo
From the text: as §1, §2, §3, §4

[3] = test system: unesterified fatty acids in the blood plasma; assay: Metabolic effects in blood plasma of fed rats: unesterified fatty acids; format: in vivo, rat; conditions: for Unesterified Fatty Acids Δ%: blood plasma
From the text: (§9) Metabolic effects in the blood plasma of fed rats.
(§10) μmol/l (unesterified fatty acids) and mmol/l (lactate).
(§11) Averages ± S.E.M. N of the treated groups = 5-6.

[4] = test system: unesterified fatty acids in the blood; assay: Unesterified fatty acids, conscious rat (maximum percentage change vs control); format: in vivo
From the text: as §1, §2, §3, §4

[5] = test system: lactate in the blood plasma; assay: Metabolic effects in blood plasma of fed rats: lactate; format: in vivo, rat; conditions: for Lactate Δ%: blood plasma; for lactacidemia compared with Me 693: vs Me 693, in words
From the text: as §9, §10, §11

[6] = test system: metabolism (development and release of heat); assay: Calorimetric effects after intravenous administration to rabbits; format: in vivo, rabbit; conditions: 0.5 mg/kg intravenously
[7] = test system: unesterified fatty acids in the blood; assay: Metabolic effects of oral administration to three conscious dogs (unesterified fatty acids, triglycerides, lactate); format: in vivo, dog; conditions: for Triglycerides Δ% / Unesterified Fatty Acids Δ%: maximum change
Experimental: (§5) A dose of only 0.1 mg/kg of Me 693 gives virtually a 100% increase in the unesterified fatty acids in the blood while the heart rate and the diastolic blood pressure are unaffected.
(§6) Metabolic and cardiovascular effects of Me 693 administered
(§7) orally to three conscious dogs. The table gives the maximum
(§8) percentage changes compared with the control values.

[8] = test system: lipolysis and glycogenolysis; assay: Summary of animal experiments: lipolytic and glycogenolytic (lactate) activity; format: in vivo; conditions: in words
From the text: To summarize, the animal experiments with Me 693 have given the following results: […]

[9] = test system: heart rate and diastolic blood pressure; assay: Cardiovascular effects of oral administration to three conscious dogs (heart rate, diastolic blood pressure); format: in vivo, dog; conditions: for Diastolic Blood Pressure Δ% / Heart Rate Δ%: maximum change
Experimental: as §5, §6, §7, §8

Compound: CC(Cc1ccc(O)cc1)NCC(O)c1cc(O)cc(O)c1 (stereo not shown) [Fenoterol, fenoterol]
- Bronchospasmolysis, % Inhibition of ACh spasm (bronchi (ACh spasm); 10 μg/kg i.v.): 67-100%
- bronchospasmolytic effects compared with Me 693 (bronchi (ACh spasm)): much greater
- Peripheral Vasodilation Δ% ([1]; 1 μg/kg i.a.): -20%
- Peripheral Vasodilation Δ% ([1]; 3 μg/kg i.a.): -28%
- Heart Rate Δ% (heart (heart rate); 0.1 μg/kg i.v.): +3%
- Heart Rate Δ% (heart (heart rate); 1 μg/kg i.v.): +27%
- Heart Rate Δ% (heart (heart rate); 10 μg/kg i.v.): +50%
- cardiovascular effects compared with Me 693 (heart (heart rate)): much greater
- Diastolic Blood Pressure Δ% ([2]; 0.1 μg/kg i.v.): -13%
- Diastolic Blood Pressure Δ% ([2]; 1 μg/kg i.v.): -33%
- Diastolic Blood Pressure Δ% ([2]; 10 μg/kg i.v.): -54%
- Unesterified Fatty Acids Δ% ([3]; 0.1 mg/kg s.c.): +18%
- Unesterified Fatty Acids Δ% ([3]; 1.0 mg/kg s.c.): +30%
- Unesterified Fatty Acids Δ% ([4]; 0.1 mg/kg s.c.): +18%
- Unesterified Fatty Acids Δ% ([4]; 1.0 mg/kg s.c.): +30%
- Lactate Δ% ([5]; 0.1 mg/kg s.c.): +33%
- Lactate Δ% ([5]; 1.0 mg/kg s.c.): +109%
- lactacidemia compared with Me 693 [5]: significantly greater

Compound: CC(C)NCC(O)c1ccc(O)c(O)c1 (stereo not shown) [Isoprenaline, isoprenaline]
- Bronchospasmolysis, % Inhibition of ACh spasm (bronchi (ACh spasm); 10 μg/kg i.v.): 76-94%
- bronchospasmolytic effects compared with Me 693 (bronchi (ACh spasm)): much greater
- Peripheral Vasodilation Δ% ([1]; 0.001 μg/kg i.a. (so in the source)): -28%
- Peripheral Vasodilation Δ% ([1]; 0.003 μg/kg i.a.): -24%
- Peripheral Vasodilation Δ% ([1]; 0.03 μg/kg i.a.): -33%
- Heart Rate Δ% (heart (heart rate); 0.1 μg/kg i.v.): +18%
- Heart Rate Δ% (heart (heart rate); 1 μg/kg i.v.): +37%
- Heart Rate Δ% (heart (heart rate); 10 μg/kg i.v.): +56%
- cardiovascular effects compared with Me 693 (heart (heart rate)): much greater
- Diastolic Blood Pressure Δ% ([2]; 0.1 μg/kg i.v.): -40%
- Diastolic Blood Pressure Δ% ([2]; 1 μg/kg i.v.): -62%
- Diastolic Blood Pressure Δ% ([2]; 10 μg/kg i.v.): -71%
- Unesterified Fatty Acids Δ% ([3]; 0.1 mg/kg s.c.): +15%
- Unesterified Fatty Acids Δ% ([3]; 1.0 mg/kg s.c.): +27%
- Unesterified Fatty Acids Δ% ([4]; 0.1 mg/kg s.c.): +15%
- Unesterified Fatty Acids Δ% ([4]; 1.0 mg/kg s.c.): +27%
- Lactate Δ% ([5]; 0.1 mg/kg s.c.): +112%
- Lactate Δ% ([5]; 1.0 mg/kg s.c.): +148%
- lactacidemia compared with Me 693 [5]: significantly greater

Compound: CC(COc1ccccc1)NCC(O)c1ccc(O)c(NS(=O)(=O)N(C)C)c1 (stereo not shown) [Me 693, 1-(4-hydroxy-3-dimethylamino-sulfonamidophenyl)-1-hydroxy-2-(1-phenoxy-isopropylamino)ethane]
- core temperatures [6]: higher core temperatures
- development and release of heat [6]: increased significantly
- heart rate and ear temperature [6]: slight increase in heart rate and ear temperature
- oxygen consumption [6]: increased oxygen consumption
- respiratory quotient [6]: reduction in the respiratory quotient
- Bronchospasmolysis, % Inhibition of ACh spasm (bronchi (ACh spasm); 100 μg/kg i.v.): 0-2%
- Peripheral Vasodilation Δ% ([1]; 10 μg/kg i.a.): -14%
- Peripheral Vasodilation Δ% ([1]; 30 μg/kg i.a.): -15%
- Heart Rate Δ% (heart (heart rate); 10 μg/kg i.v.): +8%
- Heart Rate Δ% (heart (heart rate); 20 μg/kg i.v.): +5%
- Diastolic Blood Pressure Δ% ([2]; 10 μg/kg i.v.): -24%
- Diastolic Blood Pressure Δ% ([2]; 20 μg/kg i.v.): -23%
- Unesterified Fatty Acids Δ% ([3]; 0.1 mg/kg s.c.): +34%
- Unesterified Fatty Acids Δ% ([3]; 1 mg/kg oral): +63%
- Unesterified Fatty Acids Δ% ([3]; 1.0 mg/kg s.c.): +190%
- increase in unesterified fatty acids in the blood vs comparison substances ([3]; identical dosage, vs isoprenaline and fenoterol, in words): much higher increase
- Unesterified Fatty Acids Δ% ([4]; 0.1 mg/kg s.c.): +34%
- Unesterified Fatty Acids Δ% ([4]; 1.0 mg/kg s.c.): +190%
- Triglycerides Δ% ([7]; 0.1 mg/kg oral): +18%
- Triglycerides Δ% ([7]; 0.3 mg/kg oral): +10%
- Unesterified Fatty Acids Δ% ([7]; 0.3 mg/kg oral): +95%
- Triglycerides Δ% ([7]; 1.0 mg/kg oral): +37%
- Unesterified Fatty Acids Δ% ([7]; 1.0 mg/kg oral): +112%
- unesterified fatty acids (in words) ([7]; 0.3 and 1 mg/kg oral): increased still further to a high level
- differentiation between lipolytic and glycogenolytic activities ([8]; animal experiments): Extreme differentiation between the lipolytic and glycogenolytic activities
- glycogenolytic effect ([8]; animal experiments): virtually negligible glycogenolytic activity; also recorded: does not have the glycogenolytic effect
- lipolytic effect ([8]; animal experiments): Strong lipolytic activity; also recorded: particularly long-lasting selective lipolytic effect
- blood lactate [8]: no changes are observed in blood lactate
- Lactate Δ% ([5]; 0.1 mg/kg s.c.): 0%
- Lactate Δ% ([5]; 1.0 mg/kg s.c.): +34%
- heart rate and diastolic blood pressure (in words) ([9]; 0.1 mg/kg oral): unaffected
- Diastolic Blood Pressure Δ% ([9]; 0.1 mg/kg oral): 0%
- Heart Rate Δ% ([9]; 0.1 mg/kg oral): 0%
- Diastolic Blood Pressure Δ% ([9]; 0.3 mg/kg oral): -15%
- Heart Rate Δ% ([9]; 0.3 mg/kg oral): +36%
- Diastolic Blood Pressure Δ% ([9]; 1.0 mg/kg oral): -26%
- Heart Rate Δ% ([9]; 1.0 mg/kg oral): +95%
- blood pressure (in words) ([9]; 0.3 and 1 mg/kg oral): reductions in blood pressure
- heart rate (in words) ([9]; 0.3 and 1 mg/kg oral): dose-dependent increases in heart rate
